# Where two headings read alike, the source gives them in different places.
# Target: PKN3 (Homo sapiens, UniProt Q6P5Z2)
# Assay: NanoBRET in-cell target engagement in HEK293T cells: PKN3;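 further: Full-length PKN3 with C-terminal NanoLuc expressed in HEK293T cells, serial inhibitor dilutions competing against Kinase Tracer K5 at 500 nM, BRET read after 2 h at 37 °C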
# Format: cell-based
# Parameters: full-length PKN3, CSNK2A1 or CSNK2A2 ORF; host or cells: HEK293T
# [1] = HEK293T cells, in-cell target engagement, read-out: IC50 PKN3 NanoBRET
# [2] = average of replicates, read-out: Average of IC50 values NanoBRET PKN3
# [3] = biological replicate number 1, read-out: Rep 1 IC50 NanoBRET PKN3
# [4] = biological replicate number 2, read-out: Rep 2 IC50 NanoBRET PKN3
# [5] = biological replicate number 4, read-out: Rep 4 IC50 NanoBRET PKN3
# [6] = biological replicate number 3, read-out: Rep 3 IC50 NanoBRET PKN3
# Chain of PKN3 (Q6P5Z2 whole entry): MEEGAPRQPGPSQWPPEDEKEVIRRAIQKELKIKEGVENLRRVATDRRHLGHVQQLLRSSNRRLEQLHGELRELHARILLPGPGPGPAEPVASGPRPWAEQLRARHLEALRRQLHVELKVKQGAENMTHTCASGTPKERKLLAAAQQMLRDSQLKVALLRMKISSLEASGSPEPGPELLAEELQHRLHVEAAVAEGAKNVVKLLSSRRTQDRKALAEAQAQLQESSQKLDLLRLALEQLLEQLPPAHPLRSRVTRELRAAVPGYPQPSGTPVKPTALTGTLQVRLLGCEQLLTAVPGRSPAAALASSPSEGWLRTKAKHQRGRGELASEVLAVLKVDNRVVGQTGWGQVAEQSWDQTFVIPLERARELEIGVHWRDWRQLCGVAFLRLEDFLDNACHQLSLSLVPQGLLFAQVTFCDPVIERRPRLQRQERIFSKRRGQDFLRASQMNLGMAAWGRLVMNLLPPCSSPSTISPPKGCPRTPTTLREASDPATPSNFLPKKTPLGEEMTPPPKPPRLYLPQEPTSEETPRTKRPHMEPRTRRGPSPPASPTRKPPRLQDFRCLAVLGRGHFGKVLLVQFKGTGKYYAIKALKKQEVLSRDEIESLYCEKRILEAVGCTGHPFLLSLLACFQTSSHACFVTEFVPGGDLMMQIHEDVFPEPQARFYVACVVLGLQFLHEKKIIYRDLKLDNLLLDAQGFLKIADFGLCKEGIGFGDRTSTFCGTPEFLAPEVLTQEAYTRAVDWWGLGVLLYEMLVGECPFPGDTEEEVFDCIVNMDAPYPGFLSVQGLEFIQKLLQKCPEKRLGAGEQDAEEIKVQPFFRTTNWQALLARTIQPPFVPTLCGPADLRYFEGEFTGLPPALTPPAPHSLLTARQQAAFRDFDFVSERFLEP
Compound,IC50 [1],IC50 [2],IC50 [3],IC50 [4],IC50 [5],IC50 [6]
Cc1cccc(-c2nc(Nc3ccncc3)c3sccc3n2)n1 [GW869641X],4100 nM,1580 nM,4190 nM,472 nM,87.1 nM,–
CCn1c(-c2nonc2N)nc2c(-c3ccccc3)ncc(OCCCN)c21 [GSK260205A],74 nM,22.3 nM,73.6 nM,6.19 nM,3.37 nM,6.22 nM
CCOc1nccc2c1nc(-c1nonc1N)n2CC [SB-737198],–,> 50000 nM,> 50000 nM,> 50000 nM,> 50000 nM,> 50000 nM
Cc1cccc2c(-c3ccncn3)c(-c3ccc(F)cc3)nn12 [GW515532X],–,26700 nM,–,922 nM,257 nM,–
"CNc1ncc2cc(-c3cc(NC(=O)NCCC(C)(C)C)c(F)cc3C)c(C)nc2n1 [LY3009120, reference compound]",–,513 nM,538 nM,1230 nM,173 nM,111 nM
CCn1c(-c2nonc2N)nc2c(C#CCN)ncc(OCCCN)c21 [GSK561866B],–,7970 nM,12900 nM,11200 nM,2820 nM,4910 nM
COc1cccc2c(-c3ccncc3)c(-c3ccc(F)cc3)nn12 [GW468513X],–,910 nM,2110 nM,552 nM,73.9 nM,–
ON=C1CCc2cc(-c3nc(C4CCNCC4)[nH]c3-c3ccncc3)ccc21 [SB-614067-R],–,22900 nM,19100 nM,20600 nM,1840 nM,50100 nM
